Assay results as given in US8034314B2, “Photoreactive compound specifically binding to calcium binding proteins” (priority 2004, dated 2011).

Experiments:
[1] = tested on: U-937 human monocytic cell line; test: STS-induced apoptotic cell death of U-937 cells (acridine orange/ethidium bromide staining); type: cell-based; conditions: for Reduction of STS-activated apoptotic cell death: AzRu 10 μM added 18 h before STS 1.25 μM
Description: The U-937 human monocytic cell line was grown under an atmosphere of 95% air and 5% CO2 in RPMI 1640 supplemented with 10% fetal calf serum (FCS), 1 mM L-glutamine, 100 U/ml penicillin, and 100 μg/ml streptomycin. Cells were plated at a density of 5.4×10^4 cells/cm^2 in 24-well plates and then incubated with or without AzRu for 18 hr before exposure to 1.25 μM staurosporine (STS) to induce apoptosis. Cell viability was analyzed 5 and 7 hrs after STS addition by staining with 100 μg/ml acridine orange (AcOr) and 100 μg/ml ethidium bromide (EtBr) in PBS. The cells were then visualized by fluorescence microscopy (Olympus IX51) and images were recorded on an Olympus DP70 camera, using an SWB filter.
AzRu had no effect on the viability of the cells that were not exposed to STS. In FIG. 13 A, U-937 cells were incubated without (a, c) or with AzRu (10 μM) (b,d) for 18 hrs and thereafter were exposed to STS (1.25 μM) (c and d). After five hours the cells were stained with acridine orange and ethidium bromide. Arrows indicate cells in early apoptotic state, represented as degraded nucleus, but with intact cell membrane (stained by acridine orange). Arrowheads indicate a late apoptotic state, as shown by the presence of a degraded nucleus (stained by both acridine orange and ethidium bromide). Scale bar, 20 μm. In FIG. 13 B, quantitative analysis of apoptotic cell death in control cells and cells exposed to AzRu was assessed 5 and 7 hr after their exposure to STS (1.25 by ANOVA and t-test. P<0.001 was considered statistically significant (***). Data are the means±SEM, n=3. In each independent experiment, approximately 200 cells were counted for each treatment.

Catalase = biological target: T1, Catalase (Bos taurus, UniProt P00432); test: Catalase activity; type: biochemical, bovine; conditions: AzRu 100 μM; mean ± SEM
T1 construct: bovine liver catalase; purchased Sigma; host or cells: bovine liver
From the text: (§1) Unlabelled ryanodine was obtained from Calbiochem. […] Ruthenium chloride was purchased from Aldrich.

CaMKII-dependent GAPDH = CaMKII-dependent GAPDH activity; type: biochemical; conditions: AzRu 20 μM; mean ± SEM
[2] = tested on: mitochondrial uniporter (Ca2+ uptake in mitochondria); test: Ca2+ uptake/accumulation in isolated mitochondria; type: biochemical, rat
Description: (§2) Sarcoplasmic reticulum (SR) membranes were prepared from rabbit fast twitch skeletal muscle as described by Saito [Saito et al.: J. Cell Biol. 99 (1984) 875-85]. Mitochondria were isolated from rat liver as described by us previously [Gincel D. et al.: Biochem J. 358 (2001) 147-55]. VDAC was purified by a method developed in our laboratory, using columns of hydroxyapatite and reactive red agarose [Gincel D. et al.: J. Bioenerget. Biomembr. 32 (2000) 571-83].
(§3) Ca^2+-accumulation in freshly prepared mitochondria (0.5 mg/ml) was assayed for 1 to 20 minutes at 30° C. in the presence of 225 mM mannitol, 75 mM sucrose, 120 μM CaCl2 (containing 3×10^4 cpm/nmol ^45Ca^2+), 5 mM HEPES/KOH pH 7.0, and 5 mM succinate with 0.1 mM Pi, or 4 mM MgCl2 with 3 mM ATP. The Ca^2+-uptake was terminated by rapid Millipore filtration, followed by a wash with 5 ml of 0.15 M KCl. The Ca^2+-accumulation in SR was determined as described previously [Shoshan-Barmatz V. & Shaineberg A.: Biochim. Biophys. Acta 1065 (1991) 82-8]. Electron transport from succinate to cytochrome c was described in above cited article [Gincel D. et al.: J. Bioenerget. Biomembr. 32 (2000) 571-83].
The effect of AzRu on mitochondrial process of electron transport from the donor succinate to the acceptor cytochrome c was characterized as described above. Although said electron transfer involves several dozens electron transfer carriers, this reaction was not affected by azido-ruthenium of this invention.
(§4) The hexavalent RuR and the trivalent Ru360 have been employed in various studies as inhibitors of Ca^2+-dependent reactions. As shown here, even with no photoactivation, AzRu, in contrast to RuR and Ru360, was effective in inhibiting the SR Ca^2+-pump (Table 3). […] This may open the way to inhibit other Ca^2+-dependent activities that are not sensitive to RuR, such as the plasma membrane Ca^2+-ATPase. […] RuR was employed to improve mitochondrial production in ischemic reperfused pig myocardium, was employed in the nervous system to follow neuronal death progress and can act as an anti-oxidant in certain conditions. Considering the potent activity of AzRu in RuR-insensitive reactions (see Table 3), its applications in various biological studies should be explored. Ca^2+ accumulation in SR and mitochondria was assayed as described above in the absence and presence of different concentrations of RuR (0.05-100 μM), Ru360 (0.01-100 μM) or AzRu (0.1-100 μM). The concentration required for 50% inhibition (IC50) was derived from the plot of Ca^2+ accumulation activity or ryanodine binding as a function of the reagent concentration. The results are the mean±SEM of 3 to 5 experiments (Table 3).

Brain hexokinase = Brain hexokinase (Homo sapiens, UniProt P19367); test: Brain hexokinase activity; type: biochemical; conditions: mean ± SEM
[3] = biological target: T2, ryanodine receptor (RyR) / Ca2+-release channel (Oryctolagus cuniculus, UniProt P11716); test: [3H]ryanodine binding to SR membranes; design: species or system rabbit
T2 construct: from tissue; host or cells: rabbit fast twitch skeletal muscle SR membranes
Description: as §2
For the determination of [^3H]ryanodine binding, SR membranes were incubated for 20-60 min at 37° C. in a standard binding solution containing 1M NaCl, 20 mM MOPS (pH 7.4), 50 μM free Ca^2+ and 20 nM [^3H]ryanodine. Unbound ryanodine was separated from protein-bound ryanodine by vacuum filtration of the sample through nitrocellulose filters (0.45 μm), followed by two washes with 4 ml ice-cold buffer containing 0.2 M NaCl, 10 mM MOPS (pH 7.4) and 50 μM CaCl2. The retained radioactivity in the dried filters was determined by liquid scintillation counting. Specific binding of [^3H]ryanodine was defined as the difference between the binding in the presence of 20 nM [^3H]ryanodine and in the presence of 20 μM unlabeled ryanodine.
as §4

Yeast hexokinase = Yeast hexokinase activity; type: biochemical; conditions: mean ± SEM
From the text: as §1

[4] = tested on: Succinate-cytochrome c oxido-reductase; test: Electron transport from succinate to cytochrome c in mitochondria; type: biochemical, rat
Description: as §2, §3
The effect of AzRu on mitochondrial process of electron transport from the donor succinate to the acceptor cytochrome c was characterized as described above. […]

VDAC = biological target: T3, VDAC (Rattus norvegicus, UniProt Q9Z2L0); test: VDAC channel conductance in planar lipid bilayer; type: biochemical
T3 construct: VDAC was purified by a method developed in our laboratory, using columns of hydroxyapatite and reactive red agarose; from tissue; host or cells: mitochondria
Description: as §2
Reconstitution of purified VDAC into planar lipid bilayer (PLB), single channel current recording, and data analysis were carried out as described in above mentioned publication.
VDAC is a channel protein which transports Ca^2+ across the mitochondrial outer membrane. […] Purified VDAC was reconstituted into a planar lipid bilayer as multichannels. The channel activity was measured as the ions passed the current across the bilayer in response to a voltage gradient of 10 mV, as a function of time. In the absence of AzRu, VDAC is stable in a long-lived, fully opened state and remains open for up to 2 hours of recording. However, addition of AzRu to the same channel induced VDAC closure, in a time-dependent manner. Ca^2+, in the presence of 1 M NaCl, prevented the inhibitory effect of AzRu on VDAC activity.

Lysozyme = Lysozyme (Gallus gallus, UniProt P00698); test: Lysozyme activity; type: biochemical; conditions: AzRu 100 μM; mean ± SEM
[5] = no UV, mean ± SEM of 3 to 5 experiments

T2 sequence (P11716 whole entry): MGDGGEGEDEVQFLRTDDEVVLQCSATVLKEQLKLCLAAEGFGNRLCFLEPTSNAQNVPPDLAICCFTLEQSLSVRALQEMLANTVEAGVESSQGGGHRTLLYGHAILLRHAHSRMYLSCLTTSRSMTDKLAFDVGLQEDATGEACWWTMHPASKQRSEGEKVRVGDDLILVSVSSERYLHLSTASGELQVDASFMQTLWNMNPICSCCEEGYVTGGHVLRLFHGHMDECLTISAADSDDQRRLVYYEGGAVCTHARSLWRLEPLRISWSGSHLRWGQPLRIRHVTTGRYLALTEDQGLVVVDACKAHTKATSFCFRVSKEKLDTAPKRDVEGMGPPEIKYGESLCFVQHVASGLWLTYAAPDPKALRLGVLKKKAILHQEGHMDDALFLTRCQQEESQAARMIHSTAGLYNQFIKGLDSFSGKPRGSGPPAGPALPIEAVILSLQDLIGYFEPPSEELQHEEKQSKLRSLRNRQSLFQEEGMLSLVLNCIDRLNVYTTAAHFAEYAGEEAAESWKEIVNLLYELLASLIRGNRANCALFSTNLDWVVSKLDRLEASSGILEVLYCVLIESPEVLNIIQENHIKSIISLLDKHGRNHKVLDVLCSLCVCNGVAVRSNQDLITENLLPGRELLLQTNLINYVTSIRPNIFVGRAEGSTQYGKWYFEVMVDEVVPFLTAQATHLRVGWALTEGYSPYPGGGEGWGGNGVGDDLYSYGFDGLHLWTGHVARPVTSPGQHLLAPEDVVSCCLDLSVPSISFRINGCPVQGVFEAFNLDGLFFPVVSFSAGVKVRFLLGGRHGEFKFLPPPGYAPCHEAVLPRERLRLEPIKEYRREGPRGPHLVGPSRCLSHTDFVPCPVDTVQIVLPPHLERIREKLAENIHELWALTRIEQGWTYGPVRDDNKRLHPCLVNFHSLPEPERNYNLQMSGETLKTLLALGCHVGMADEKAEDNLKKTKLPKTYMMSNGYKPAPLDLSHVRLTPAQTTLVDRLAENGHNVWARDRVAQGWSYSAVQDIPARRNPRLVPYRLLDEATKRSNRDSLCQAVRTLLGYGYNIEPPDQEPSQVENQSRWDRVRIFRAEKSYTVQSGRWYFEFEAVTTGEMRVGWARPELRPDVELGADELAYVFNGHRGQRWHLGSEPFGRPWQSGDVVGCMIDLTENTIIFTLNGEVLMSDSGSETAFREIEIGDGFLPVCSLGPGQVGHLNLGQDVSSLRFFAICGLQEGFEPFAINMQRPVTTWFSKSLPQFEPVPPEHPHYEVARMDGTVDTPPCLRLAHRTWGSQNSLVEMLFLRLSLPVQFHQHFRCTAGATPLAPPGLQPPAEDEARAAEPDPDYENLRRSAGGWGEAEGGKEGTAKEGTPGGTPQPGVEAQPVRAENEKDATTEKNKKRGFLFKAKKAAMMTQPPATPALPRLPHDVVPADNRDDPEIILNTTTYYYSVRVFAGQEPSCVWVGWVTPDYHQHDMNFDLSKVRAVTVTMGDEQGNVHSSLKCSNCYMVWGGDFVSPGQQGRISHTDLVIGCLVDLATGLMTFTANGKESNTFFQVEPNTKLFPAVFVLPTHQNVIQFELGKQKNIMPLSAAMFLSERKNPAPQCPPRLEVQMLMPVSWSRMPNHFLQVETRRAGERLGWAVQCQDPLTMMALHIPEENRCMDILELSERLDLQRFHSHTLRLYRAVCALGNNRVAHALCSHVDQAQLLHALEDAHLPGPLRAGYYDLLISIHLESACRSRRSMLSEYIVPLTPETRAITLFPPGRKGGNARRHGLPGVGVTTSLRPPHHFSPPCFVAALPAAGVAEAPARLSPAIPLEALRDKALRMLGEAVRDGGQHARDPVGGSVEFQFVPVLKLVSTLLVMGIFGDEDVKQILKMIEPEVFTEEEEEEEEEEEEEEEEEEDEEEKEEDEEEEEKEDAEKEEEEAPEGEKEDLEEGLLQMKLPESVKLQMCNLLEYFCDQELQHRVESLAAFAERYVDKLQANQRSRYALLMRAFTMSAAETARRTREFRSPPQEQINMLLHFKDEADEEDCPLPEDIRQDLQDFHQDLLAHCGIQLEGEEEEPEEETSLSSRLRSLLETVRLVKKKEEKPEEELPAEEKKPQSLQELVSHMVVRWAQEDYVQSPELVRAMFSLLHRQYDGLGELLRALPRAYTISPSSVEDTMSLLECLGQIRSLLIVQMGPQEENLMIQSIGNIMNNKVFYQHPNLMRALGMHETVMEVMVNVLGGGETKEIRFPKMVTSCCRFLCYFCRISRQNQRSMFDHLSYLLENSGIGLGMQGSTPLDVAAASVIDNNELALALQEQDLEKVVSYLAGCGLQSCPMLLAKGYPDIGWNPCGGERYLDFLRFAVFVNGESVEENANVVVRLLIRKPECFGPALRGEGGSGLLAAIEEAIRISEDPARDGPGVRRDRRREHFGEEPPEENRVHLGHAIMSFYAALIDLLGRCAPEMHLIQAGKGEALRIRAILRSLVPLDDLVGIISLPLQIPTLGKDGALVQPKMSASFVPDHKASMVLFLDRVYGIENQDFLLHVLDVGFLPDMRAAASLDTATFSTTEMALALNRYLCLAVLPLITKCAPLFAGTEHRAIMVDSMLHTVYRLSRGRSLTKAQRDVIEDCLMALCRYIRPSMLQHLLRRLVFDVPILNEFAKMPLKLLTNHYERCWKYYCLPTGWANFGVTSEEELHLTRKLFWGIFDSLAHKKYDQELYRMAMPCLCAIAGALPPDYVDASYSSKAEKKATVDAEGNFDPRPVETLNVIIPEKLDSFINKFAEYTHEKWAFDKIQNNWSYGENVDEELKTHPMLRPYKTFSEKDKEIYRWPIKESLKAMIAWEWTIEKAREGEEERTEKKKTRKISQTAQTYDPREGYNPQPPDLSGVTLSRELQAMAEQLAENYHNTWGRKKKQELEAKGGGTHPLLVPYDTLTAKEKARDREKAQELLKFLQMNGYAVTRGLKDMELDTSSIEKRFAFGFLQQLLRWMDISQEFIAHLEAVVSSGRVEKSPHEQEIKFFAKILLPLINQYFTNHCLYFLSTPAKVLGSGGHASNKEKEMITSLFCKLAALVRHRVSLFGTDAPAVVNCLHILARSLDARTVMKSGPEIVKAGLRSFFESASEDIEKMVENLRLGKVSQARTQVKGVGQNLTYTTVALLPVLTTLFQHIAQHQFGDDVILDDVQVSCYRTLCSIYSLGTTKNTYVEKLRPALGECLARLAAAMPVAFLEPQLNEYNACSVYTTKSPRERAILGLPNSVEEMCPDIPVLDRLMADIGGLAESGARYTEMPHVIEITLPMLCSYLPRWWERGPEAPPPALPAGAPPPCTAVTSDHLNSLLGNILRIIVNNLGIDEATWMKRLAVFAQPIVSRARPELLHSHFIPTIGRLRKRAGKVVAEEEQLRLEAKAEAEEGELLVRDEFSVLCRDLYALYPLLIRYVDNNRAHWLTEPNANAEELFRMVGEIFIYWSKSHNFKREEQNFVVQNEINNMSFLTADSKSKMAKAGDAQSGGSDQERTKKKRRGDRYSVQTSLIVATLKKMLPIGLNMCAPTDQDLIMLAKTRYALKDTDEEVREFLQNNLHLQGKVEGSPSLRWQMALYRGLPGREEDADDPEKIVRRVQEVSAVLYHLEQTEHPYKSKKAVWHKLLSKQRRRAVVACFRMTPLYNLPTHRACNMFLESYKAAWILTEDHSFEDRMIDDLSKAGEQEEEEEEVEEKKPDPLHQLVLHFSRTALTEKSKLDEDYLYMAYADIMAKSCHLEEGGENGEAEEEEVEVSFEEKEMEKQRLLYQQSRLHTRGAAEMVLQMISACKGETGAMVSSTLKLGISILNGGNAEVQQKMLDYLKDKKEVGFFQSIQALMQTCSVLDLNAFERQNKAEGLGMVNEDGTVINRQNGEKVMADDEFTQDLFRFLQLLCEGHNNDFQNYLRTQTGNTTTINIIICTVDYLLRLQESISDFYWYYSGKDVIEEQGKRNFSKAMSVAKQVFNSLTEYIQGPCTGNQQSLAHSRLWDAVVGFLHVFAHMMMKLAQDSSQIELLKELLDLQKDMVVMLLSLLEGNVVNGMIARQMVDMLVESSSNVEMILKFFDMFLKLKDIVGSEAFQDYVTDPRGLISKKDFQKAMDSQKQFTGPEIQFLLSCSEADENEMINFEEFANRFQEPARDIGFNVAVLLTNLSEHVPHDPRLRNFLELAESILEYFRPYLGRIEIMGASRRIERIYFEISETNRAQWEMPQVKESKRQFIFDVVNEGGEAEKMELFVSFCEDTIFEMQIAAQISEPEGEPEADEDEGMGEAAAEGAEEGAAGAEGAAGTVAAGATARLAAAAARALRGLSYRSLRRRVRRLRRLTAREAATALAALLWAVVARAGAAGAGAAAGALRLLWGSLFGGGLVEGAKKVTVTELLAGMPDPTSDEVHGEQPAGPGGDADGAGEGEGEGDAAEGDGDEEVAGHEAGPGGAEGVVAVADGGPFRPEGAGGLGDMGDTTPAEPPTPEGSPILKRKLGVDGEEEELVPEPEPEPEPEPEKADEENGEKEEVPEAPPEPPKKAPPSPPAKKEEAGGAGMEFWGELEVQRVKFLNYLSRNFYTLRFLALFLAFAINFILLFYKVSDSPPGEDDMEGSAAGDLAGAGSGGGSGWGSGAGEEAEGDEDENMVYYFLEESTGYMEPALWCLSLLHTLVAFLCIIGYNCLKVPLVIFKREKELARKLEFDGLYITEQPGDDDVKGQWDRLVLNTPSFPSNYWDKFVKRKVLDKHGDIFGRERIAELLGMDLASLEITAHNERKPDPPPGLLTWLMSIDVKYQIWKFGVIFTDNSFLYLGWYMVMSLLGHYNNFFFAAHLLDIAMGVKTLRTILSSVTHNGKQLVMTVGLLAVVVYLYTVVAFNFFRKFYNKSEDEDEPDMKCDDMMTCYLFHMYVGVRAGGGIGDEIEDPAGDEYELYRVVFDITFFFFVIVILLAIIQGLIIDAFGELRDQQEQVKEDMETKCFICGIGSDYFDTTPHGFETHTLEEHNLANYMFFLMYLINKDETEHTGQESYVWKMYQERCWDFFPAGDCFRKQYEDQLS
Sequence of Lysozyme (P00698 19-147): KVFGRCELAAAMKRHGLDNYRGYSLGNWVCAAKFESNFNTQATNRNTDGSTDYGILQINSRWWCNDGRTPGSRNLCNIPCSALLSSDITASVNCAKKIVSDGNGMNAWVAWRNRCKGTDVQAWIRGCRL

For azido-ruthenium [AzRu], the “Reduction of STS-activated apoptotic cell death” value ([1]; 5 h of exposure to STS) was “about 75%”, the “Reduction of STS-activated apoptotic cell death” value ([1]; 7 h of exposure to STS) was roughly 47% and the “Effect on viability of cells not exposed to STS” value ([1]; U-937 cells, no STS) was “no effect”. The “Activity (% of control), Catalase” value (Catalase) was 118 ± 8 % of control, the “Activity (% of control), CaMKII-dependent GAPDH” value (CaMKII-dependent GAPDH) was 6 ± 2 % of control and the “Activity (% of control), Ca2+ uptake in mitochondria” value ([2]; AzRu 20 μM, mean ± SEM) was 11 ± 4 % of control. For the same substance, the “Effect on Ca2+ transport in mitochondria” value ([2]; isolated mitochondria, FIG. 7) was “inhibited”, the IC50 [2, 5] was 1780 ± 120 nM and the “Activity (% of control), Brain hexokinase” value (Brain hexokinase; AzRu 20 μM) was 73 ± 7 % of control. For the same substance, the “Activity (% of control), Brain hexokinase” value (Brain hexokinase; AzRu 100 μM) was 61 ± 3 % of control, the IC50 ([3]; +UV (photoactivation), mean ± SEM) was 1210 ± 60 nM and the “Activity (% of control), Ryanodine binding by SR RyR” value ([3]; AzRu 20 μM, mean ± SEM) was 18 ± 6 % of control. For the same substance, the “Effect on binding of ryanodine to SR membranes” value ([3]; FIG. 8) was “strongly inhibited”, the IC50 [3, 5] was 2900 ± 170 nM and the “Activity (% of control), Yeast hexokinase” value (Yeast hexokinase; AzRu 20 μM) was 77 ± 5 % of control. For the same substance, the “Activity (% of control), Yeast hexokinase” value (Yeast hexokinase; AzRu 100 μM) was 64 ± 4 % of control, the “Activity (% of control), Succinate-cytochrome c oxido-reductase” value ([4]; AzRu 100 μM, mean ± SEM) was 95 ± 5 % of control and the “Effect on electron transfer from succinate to cytochrome c in mitochondria” value ([4]; isolated mitochondria, FIG. 7) was “not affected”. The “Activity (% of control), VDAC conductance” value (VDAC; AzRu 20 μM, mean ± SEM) was 19 ± 5 % of control, the “Effect on VDAC conductance in multi-channel experiments” value (VDAC; all voltages tested) was “decreased VDAC conductance” and the “Effect on VDAC channel activity” value (VDAC; purified VDAC in planar lipid bilayer, voltage gradient 10 mV) was “inhibited the channel activity of VDAC”. The “Activity (% of control), Lysozyme” value (Lysozyme) was 101 ± 3 % of control.
